From US5756491A, “Antiviral cobalt-organic compounds” (priority 1991, dated 1998)
Converted amounts (≈) assume the structure as drawn.

Columns and labels:
[1] = test system: HFF cells; test: Neutral red uptake toxicity; assay type: cell-based, human; details: stationary cells
[2] = test system: HFF cells; test: MTT assay for cell cytotoxicity; assay type: cell-based, human; details: stationary cells
Experimental: Twenty-four hours prior to assay, HFF cells are plated into 96 well plates at a concentration of […] cells per well. After 24 h, the media is aspirated and […] of drug is added to the first row of wells and then diluted serially 1:5 using the automated Cetus Liquid Handling System in a manner similar to that used in the CPE assay. The plates are then incubated in a CO2 incubator at 37° C. for seven days. At this time, each well receives 50 microliters of […] solution of MTT in Dulbecco's Phosphate Buffered Saline. The plates are then incubated for an additional four hours. At this time, the media is removed and replaced with 100 μl of 0.04N hydrochloric acid in isopropanol. After shaking briefly, the plates are then read on a plate reader at 550 nm.

[3] = test system: HFF cells; test: Cell proliferation assay; assay type: cell-based, human; details: rapidly growing cells
Experimental: Twenty-four hours prior to assay, HFF cells are seeded in 6-well plates at a concentration of 2.5×10^4 cells per well in MEM containing 10% FBS. On the day of the assay, drugs are diluted serially in MEM containing 10% FBS at increments of 1:5 covering a range from 100 μg/ml to 0.03 μg/ml. […] The media from the wells is then aspirated and 2 ml of each drug concentration is then added to each well. The cells are then incubated in a Co2 incubator at 37° C. for 72 h. At the end of this time, the media-drug solution is removed and the cells washed. […] The cell-media mixture is then pipetted up and down vigorously to break up the cell suspension and 0.2 ml of the mixture is added to 9.8 ml of Isoton III and counted using a Coulter Counter. Each sample is counted three times with three replicate wells per sample.

[4] = VZV plaque reduction assay; assay type: cell-based; details: Human alphaherpesvirus 3, V2V
Experimental: The procedure is essentially the same as for the HSV plaque assay described above with two exceptions:
1. After addition of the drug, the plates are incubated for ten days.
2. On days three and six an additional 1 ml overlay with equal amounts of 2×MEM and 1% agarose are added.
The procedure for the liquid overlay plaque assay is similar to that using the agarose overlay. The procedure for adding the virus is the same as for the regular plaque assay. The drugs are made up in a concentration to be used in MEM with 2% FBS. The drugs are not made up at 2×concentration as in previous assays but are made up at the desired concentration. For HSV-1 and HSV-2 assays, an antibody preparation obtained from Baxter Health Care Corporation is diluted 1:500 and added to the media that the drug is diluted in. For CMV and VZV, no antibody in the overlay is utilized. For the CMV assay, additional medium without new drug is added on day six and allowed to incubate for a total of 11 days. For VZV, additional media is added on day five and incubated for a total of eight days. At the end of the incubation period for all of the assays, the medium is removed, the cells washed and then stained with 0.1% crystal violet solution for ten minutes. […]
(§1) I. EC50 values were also determined for each of the viruses tested for known antiviral agents. […]

[5] = test system: HSV-1; test: HSV-1 cytopathic effect (CPE) inhibition assay; assay type: cell-based; details: Human alphaherpesvirus 1; HSV-1, CPE
Experimental: (§2) Low passage human foreskin fibroblast cells were seeded into 96 well tissue culture plates 24 hours prior to use at a cell concentration of 2.5×10^4 cells per ml in 0.1 ml (MEM) supplemented with 10% fetal bovine serum (FBS). The cells were then incubated for 24 hour at 37° C. in a CO2 incubator. After incubation, the medium was removed and 100 μl of MEM containing 2% FBS was added to all but the first row. In the first row, 125 μl of experimental drug was added in triplicate wells. Medium alone was added to both cell and virus control wells. The drug in the first row of wells was then diluted serially 1:5 throughout the remaining wells by transferring 25 μl using the Cetus Liquid Handling Machine. After dilution of drug, 100 μl of the appropriate virus concentration was added to each well, excluding cell control wells which received 100 μl of MEM. For HSV-1 and HSV-2 assays, the virus concentration utilized was 1000 PFU's per well. For CMV and VZV assays, the virus concentration added was 2500 PFU per well. The plates were then incubated at 37° C. in a CO2 incubator for three days for HSV-1 and HSV-2, 10 days for VZV, or 14 days for CMV. […] The plates were allowed to dry for 24 h and then read on a Skatron Plate Reader at 620 nm.
as §1

[6] = test system: EBV; test: EBV IMN assay; assay type: cell-based; details: human gammaherpesvirus 4, EBV
Experimental: (§3) I. EC50 values were also determined for each of the viruses tested for known antiviral agents. The comparison compound was ACV for all viruses except for HCMV aherein DHPG was the comparison compound. In Table 26, these comparison EC50 values are indicated with an asterisk. In Table 27, the drug FIAU (2'-fluoro-5-iodo-arabinosyl-uracil) was used as a control.

[7] = test system: HSV-1; test: HSV-1 plaque reduction assay; assay type: cell-based; details: Human alphaherpesvirus 1, read-out: EC50
Experimental: Two days prior to use, HFF cells are plated into six well plates and incubated at 37° C. with 5% CO2 and 90% humidity. On the date of assay, the drug is made up at twice the desired concentration in 2×MEM and then serially diluted 1:5 in 2×MEM using six concentrations of drug. The initial starting concentration is usually 200 μg/ml down to 0.06 μg/ml. The virus to be used is diluted in MEM containing 10% FBS to a desired concentration which will give 20-30 plaques per well. The media is then aspirated from the wells and 0.2 ml of virus is added to each well in duplicate with 0.2 ml of media being added to drug toxicity wells. The plates are then incubated for one hour with shaking every fifteen minutes. After the incubation period, an equal amount of 1% agarose was added to a equal volume of each drug dilution. This will give final drug concentrations beginning with 100 μg/ml and ending with 0.03 μg/ml and a final agarose overlay concentration of 0.5%. The drug agarose mixture is applied to each well in 2 ml volume and the plates then incubated for three days, after which the cells were stained with a 1.5% solution of neutral red. At the end of 4-6 hr incubation period, the stain is aspirated, and plaques counted using a stereomicroscope at 1×magnification.
The procedure for the liquid overlay plaque assay is similar to that using the agarose overlay. The procedure for adding the virus is the same as for the regular plaque assay. The drugs are made up in a concentration to be used in MEM with 2% FBS. The drugs are not made up at 2×concentration as in previous assays but are made up at the desired concentration. For HSV-1 and HSV-2 assays, an antibody preparation obtained from Baxter Health Care Corporation is diluted 1:500 and added to the media that the drug is diluted in. For CMV and VZV, no antibody in the overlay is utilized. For the CMV assay, additional medium without new drug is added on day six and allowed to incubate for a total of 11 days. For VZV, additional media is added on day five and incubated for a total of eight days. At the end of the incubation period for all of the assays, the medium is removed, the cells washed and then stained with 0.1% crystal violet solution for ten minutes. The cells are then rinsed several times to remove any excess crystal violet and plaques enumerated using a stereomicroscope.
as §3

[8] = test system: HSV-2; test: HSV-2 cytopathic effect (CPE) inhibition assay; assay type: cell-based; details: Human alphaherpesvirus 2; HSV-2, CPE
Experimental: as §2, §1

[9] = test system: HSV-1 McKrae Strain; test: Direct virucidal efficacy against HSV-1 on HFF monolayers; assay type: cell-based; details: for virucidal efficacy (HSV-1 titer): Experiment 1 (Table 2), 24 h PI; for effective virucidal concentration IC50 / effective virucidal concentration IC90: HSV-1
Experimental: HSV-1 McKrae Strain was diluted to a final concentration of 10^5 PFU/ml in minimal essential medium (MEM). Hereinafter, this dilution is referred to as the HSV-1 Suspension for convenience.
(§4) With sufficient stirring, all the compounds completely dissolved.
Each of the drug solutions were mixed with the HSV-1 Suspension in a 1:1 ratio. The drug and HSV-1 Suspension mixture was incubated at 37° C. for thirty minutes with agitation every ten minutes. After the incubation, fifty microliter aliquots were overlaid onto triplicate confluent human foreskin fibroblast (HFF) cell monolayers. The inoculum was absorbed for thirty minutes and then a medium containing the appropriate drug concentration in MEM was added to the monolayers to a final volume of 0.5 milliliters per culture-well. The monolayers were incubated at 37° C. The developing HSV-1 Cytopathology was monitored daily for two days by inverted light microscopy. Titers were calculated by multiple regression analysis. All data is presented as the average PFU/ml reduction at 24 and/or 48 hours after inoculation (PI).
1. HSV-1 inoculated, non-compound treated HFF monolayers were included as "positive controls"; and […]

[10] = test system: human foreskin fibroblast (HFF) cell monolayers; test: Toxicity effects controls: sham-inoculated compound-treated HFF monolayers; assay type: cell-based; details: Experiment 1 (Table 1); further: key: +: toxic; -: no toxicity; ±: mild toxicity; T: toxicity effects interfered with CPE rating
Source text: as §4
In the tables, the symbols have the meaning indicated: […]

[11] = test system: HSV-2 (MS strain); test: Vaginal virus replication in primary genital HSV-2 infection of guinea pigs; assay type: in vivo, Female Hartley strain guinea pigs
Experimental: (§5) A series of studies were carried out to compare the activity of inventive antiviral Compounds 23, 76, and 82 in a primary genital HSV-2 infection of guinea pigs. The experiments were placebo-controlled and uninfected animals were treated with three concentrations of each of the preparations to assess skin irritation and determine the maximum tolerated dose.
(§6) The MS strain of HSV-2 was utilized for the experimental animal infection. Female Hartley strain guinea pigs (Charles River Breeding Laboratories, Kingston, N.Y.) weighing 250-300 g were inoculated intravaginally with 1.4×10^5 plaque forming units of HSV-2 one hour after being swabbed for the removal of vaginal secretions.
(§7) Groups of 10 infected guinea pigs were treated topically as stated above with 20 mg/ml (the maximum tolerated dose) of each compound beginning 6 h or 24 h after inoculation with HSV-2.
To determine the effect of treatment on vaginal virus replication, swabs of vaginal secretions were obtained on days 1, 3, 5, 7, and 10 after HSV-2 inoculation, placed in a tube containing 2.0 ml of media, vortexed and frozen at -70° until titrated for HSV-2. When all samples were collected, they were thawed, diluted serially and HSV-2 titers were determined using rabbit kidney cells in a microtiter CPE assay. Mean peak virus titers and areas under the virus titer-day curves were calculated and analyzed.
(§8) The number of animals infected over the number inoculated, lesion score-day areas and virus titer-day areas under the curve, peak lesion scores and peak virus titers between untreated and placebo-treated or placebo-treatedand drug-treated animals were compared using the Mann-Whitney U rank sum test. A p-value of 0.05 or less was considered significant.

[12] = test system: HSV-2 (MS strain); test: External genital lesion development in primary genital HSV-2 infection of guinea pigs; assay type: in vivo, Female Hartley strain guinea pigs; parameters: key to Lesion Score-Day Area Under Curve: area under 0-5+ lesion score vs day curve (score-days); key to Mean Peak Lesion Score: lesion severity on 0-5+ scale
Experimental: as §5, §6, §7
To determine the effect of therapy on the development and spread of external genital lesions, lesion severity was scored on a 0-5+ scale through the primary infection (21 days). Mean peak lesion scores and the areas under the lesion score-day curves were calculated and analyzed.
as §8

CC1=[N+]2CC[N+]3=C(C)C=C(c4ccccc4)[O][Co-3]23([NH3+])([NH3+])[O]C(c2ccccc2)=C1.[Cl-] [Compound 64]
toxicity IC50, neutral red uptake [1]: 15.2 MCG/ML | toxicity IC50, MTT toxicity [2]: 53 MCG/ML | toxicity IC50, cell proliferation [3]: 38 MCG/ML

Nc1nc2c(ncn2COCCO)c(=O)[nH]1 [ACV]
EC50 [4]: 3.2 µg/mL (≈ 14.2 µM) | EC50 [5]: 0.2 µg/mL (≈ 0.888 µM) | EC50 [6]: 5.8 µg/mL (≈ 25.8 µM) | EC50 [7]: 0.2 µg/mL (≈ 0.888 µM) | EC50 [8]: 0.7 µg/mL (≈ 3.11 µM)

CC([O-])=CC(C)=NCCN=C(C)C=C(C)[O-].[Br-].[Co+3].c1ccncc1.c1ccncc1 [Compound 76]
virucidal efficacy (HSV-1 titer) ([9]; 0.001 mg/ml): 10^5 PFU/ml | virucidal efficacy (HSV-1 titer) ([9]; .01 mg/ml): 10^3 PFU/ml | effective virucidal concentration IC50 ([9]; Experiment 1 (Table 3)): 10 µg/mL | effective virucidal concentration IC90 ([9]; Experiment 1 (Table 3)): 100 to 1000 µg/mL | effective virucidal concentration IC50 ([9]; Experiment 2 (Table 6)): 10 µg/mL | effective virucidal concentration IC90 ([9]; Experiment 2 (Table 6)): 100 to 1000 µg/mL | toxicity effects ([10]; 24 h PI, 0.001 mg/ml): - | toxicity effects ([10]; 24 h PI, 0.01 mg/ml): - | toxicity effects ([10]; 24 h PI, 0.1 mg/ml): - | toxicity effects ([10]; 48 h PI, 0.001 mg/ml): - | toxicity effects ([10]; 48 h PI, 0.01 mg/ml): - | toxicity effects ([10]; 48 h PI, 0.1 mg/ml): - | toxicity effects ([10]; 48 h PI, 1 mg/ml): + | toxicity effects ([10]; 48 h PI, 10 mg/ml): + | # Infected/# Inoculated ([11]; 20 mg/ml, started +6h): 5/10 | Mean Peak Virus Titer ([11]; 20 mg/ml, started +6h): 1.0 | P-Value for Mean Peak Virus Titer ([11]; 20 mg/ml, started +6h): < 0.001 | Virus Titer-Day Area Under Curve ([11]; 20 mg/ml, started +6h): 2.9 | # Infected/# Inoculated ([11]; 20 mg/ml, started +24h): 10/10 | Mean Peak Virus Titer ([11]; 20 mg/ml, started +24h): 4.3 | Virus Titer-Day Area Under Curve ([11]; 20 mg/ml, started +24h): 17.7 | infectivity rate ([11]; treatment beginning 6 h after infection): 50% | Lesion Score-Day Area Under Curve ([12]; 20 mg/ml, started +6h): 4.4 | Mean Peak Lesion Score ([12]; 20 mg/ml, started +6h): 0.4 | P-Value for Mean Peak Lesion Score ([12]; 20 mg/ml, started +6h): < 0.001 | Lesion Score-Day Area Under Curve ([12]; 20 mg/ml, started +24h): 37.2 | Mean Peak Lesion Score ([12]; 20 mg/ml, started +24h): 3.3 | lesion AUC difference vs untreated control animals ([12]; started +24 h, vs untreated control): not significant
